Data published in patent US6271369A, “Chimeric molecules targeted to viral RNAs” (priority 1997, dated 2001).
“Also recorded” adds a separate entry of the source.

How the values were obtained:
TAR:vif RNA = assay: Cleavage of control TAR:vif RNA (no oligo(rA) tract) in Daudi cell extract; format: biochemical, HIV-1; conditions: 0.2 or 1.0 μM
Description: To determine the ability of the 2-5A:AS chimeric molecule SEQ ID NO:1 to induce site-directed RNA cleavage, a target RNA was constructed having an internal 3',5'-oligo(rA) tract. Hybridization between the (dT18) in SEQ ID NO:1 with the oligo(rA) in the target RNA attracts 2-5A-dependent RNase to the target RNA, resulting in a highly specific cleavage event. The experimental target, TAR:A25 :vif RNA, was produced in vitro from a pSP64-derived plasmid containing a partial cDNA for the HIV vif protein interrupted with 25 adenylyl residues. A control TAR:vif RNA was constructed with the A25 tract deleted. These RNA species, which lack 3'-poly(rA) tails, were radiolabeled at their 3'-termini with [5'-^32 p)-pCp by T4 RNA ligase and gel purified prior to the assay. […]
Daudi cell extracts prepared with dounce homogenization were made by the well known method of Wreschner, et al. in a buffer containing 40mM KCl; 10 mM HEPES pH 7.5; 2.5mM magnesium acetate; 0.5mM ATP; 2.5% glycerol and 2.0mM mercaptoethanol. […] Cleavage products were analyzed in 6% polyacrylamide/8M urea gels (30×40×0.04cm).
This property of the 2-5A:AS molecule was determined by experiments employing unmodified 2-5A. […]

TAR:A25 :vif RNA = assay: Site-directed cleavage of TAR:A25:vif RNA in Daudi cell extract; format: biochemical, HIV-1
Description: To determine the ability of the 2-5A:AS chimeric molecule SEQ ID NO:1 to induce site-directed RNA cleavage, a target RNA was constructed having an internal 3',5'-oligo(rA) tract. Hybridization between the (dT18) in SEQ ID NO:1 with the oligo(rA) in the target RNA attracts 2-5A-dependent RNase to the target RNA, resulting in a highly specific cleavage event. The experimental target, TAR:A25 :vif RNA, was produced in vitro from a pSP64-derived plasmid containing a partial cDNA for the HIV vif protein interrupted with 25 adenylyl residues. A control TAR:vif RNA was constructed with the A25 tract deleted. These RNA species, which lack 3'-poly(rA) tails, were radiolabeled at their 3'-termini with [5'-^32 p)-pCp by T4 RNA ligase and gel purified prior to the assay.
The 2-5A:AS strategy for site-directed RNA cleavage was next tested in a cell-free system consisting of a postribosomal supernatant fraction of human lymphoblastoid Daudi cells.
Daudi cell extracts prepared with dounce homogenization were made by the well known method of Wreschner, et al. in a buffer containing 40mM KCl; 10 mM HEPES pH 7.5; 2.5mM magnesium acetate; 0.5mM ATP; 2.5% glycerol and 2.0mM mercaptoethanol. The extract used in the RNA cleavage assays was the supernatant of a 100,000 ×g centrifugation of cell extract. About 100 nM radiolabeled RNA (approximately 25,000 counts/min/assay) was incubated with oligonucleotides at 30° C. in extract (10μl) supplemented with 75mM KCl in a final volume of 20 μl. Reactions were terminated and the RNA was extracted with phenollchloroform. The RNA was then ethanol precipitated and redissolved in sterile water and an equal volume of formamide gel sample buffer. Cleavage products were analyzed in 6% polyacrylamide/8M urea gels (30×40×0.04cm).
The cleavage reaction was performed after adding SEQ ID NO:l and purified radiolabeled TAR:A25 :vif RNA to the Daudi cell extract (without preannealing) followed by incubation at 30° C. In the absence of added oligonucleotide, the TAR:A25 :vif RNA was degraded with a half-life of about 90 minutes.
An experiment was conducted to analyze (A) the in vitro transcription of AccI restriction endonuclease-digested plasmids containing TAR:A25 :vif and TAR:vif sequences and (B) the specific cleavage of TAR:A25 ;vif RNA induced by SEQ ID NO:1 (100nM) in extracts of Daudi cells as a function of time. The breakdown of TAR:A25 :vif RNA (intact RNA) was proportional to the appearance of the specific cleavage product. Data was obtained by running a gel with the products of the experiment and then making an autoradiogram of the dried gel. The autoradiogram was then subjected to image analysis with a video camera (Sierra Scientific) and the QUICKCAPTURE.COPYRGT. (Marlboro, Mass.) and IMAGE.COPYRGT. computer programs run on a MACINTOSH IIci.cndot. computer. The percentage of RNA shown in FIG. 6 was based on the sum of the intact RNA and the specific RNA cleavage product.
Cleavage of TAR:A25 :vif RNA (about 100 nM) as a function of SEQ ID NO:1 concentration was also measured. The cleavage reaction was allowed to continue for 30 minutes in Daudi cell extract at 30° C. The levels of the specific cleavage products (relative peak areas) were determined from an autoradiogram as described in relation to FIG. 6 above. The results shown in FIGS. 6 and 7 were reproduced three times.

[1] = about 100 nM RNA, 30 minutes, 30° C., FIG. 7

What does the source list for “p5'A2'(p5'A2')2 P5'A2'p1[OCH2 (CH2)2 CH2 O]4p1[OCH2 (CH2)2 CH2 O]4p5'pdT3'(p5'dt3')16 p5'dt (AAAATTTTTTTTTTTTTTTTTT; chemistry not fully specified) [SEQ ID NO:1]”?
specific cleavage in TAR:vif RNA lacking the oligo(rA) tract (TAR:vif RNA): failed to yield a specific cleavage; incubation time for 50% breakdown to the specific cleavage product (TAR:A25 :vif RNA; 100 nM, Daudi extract, 30° C., FIG. 6): 20 min; incubation time after which breakdown to cleavage product could be seen clearly (TAR:A25 :vif RNA; Daudi extract, 30° C.): 5 min; specific cleavage of TAR:A25:vif RNA (TAR:A25 :vif RNA; Daudi extract, 30° C., 30 minutes): nearly quantitative conversion of the intact RNA to a specific cleavage product; also recorded: Specific cleavage of the substrate was observed; lowest concentration at which cleavage reaction was observed (TAR:A25 :vif RNA; [1]): 25 nM; optimal concentration for the cleavage reaction (TAR:A25 :vif RNA; [1]): 250 nM; increase of rate of breakdown of TAR:A25:vif RNA (TAR:A25 :vif RNA; versus no added oligonucleotide (half-life about 90 minutes)): more than four-fold
